l = locked nucleic acid (LNA); d = 2'-deoxy (DNA)
How the values were obtained:
ApoB mRNA = experiment: Knock down of ApoB mRNA in liver and kidney (qPCR, Example 5); type: in vivo, C57BL6/J mice; settings: mice; for knock down of ApoB mRNA: single iv or sc dose equimolar to 0.25 mg/kg, days 1-7, FIG. 8
From the text: (§1) Capital letters are LNA nucleosides (such as beta-D-oxy LNA), lower case letters are a DNA nucleoside. Subscript s represents a phosphorothioate internucleoside linkage (region A). LNA cytosines are optionally 5-methyl cytosine. The 2PO linker (region B) is 5′ to the sequence region A, and comprises of two DNA nucleosides linked by phosphodiester linkage, with the internucleoside linkage between the 3′ DNA nucleoside of region A and the 5′ LNA nucleoside of region A also being phosphodiester. A linkage group (Y) may be used to link the conjugate group, when present, to region B, or A (SEQ ID NO 13 and 11). C57BL6/J mice were injected either iv or sc with a single dose saline or 0.25 mg/kg unconjugated LNA-antisense oligonucleotide (SEQ ID N012) or equimolar amounts of LNA antisense oligonucleotides conjugated to GalNAc1, GalNAc2, or cholesterol (2PO) and sacrificed at days 1-7 according to the table below (experimental design).
(§2) RNA was isolated from liver and kidney and subjected to qPCR with ApoB specific primers and probe to analyse for ApoB mRNA knockdown. The oligonucleotide content was measured using ELISA method and total cholesterol in serum was measured.
C57BL/6JBom female animals, app. 20 g at arrival, were dosed with 10 ml per kg BW (according to day 0 bodyweight) i.v. or s.c. of the compound formulated in saline or saline alone according to the table above.
The animals were anaesthetised with 70% CO2-30% O2 and sacrificed by cervical dislocation according to the above table. One half of the large liver lobe and one kidney were minced and submerged in RNAlater. The other half of liver and the other kidney was frozen and used for tissue analysis. […]
(§3) For each sample 0.5 μg total RNA was adjusted to (10.8 μl) with RNase free H2O and mixed with 2 μl random decamers (50 μM) and 4 μl dNTP mix (2.5 mM each dNTP) and heated to 70° C. for 3 min after which the samples were rapidly cooled on ice. […] Oligonucleotide content in liver and kidney was measured by sandwich ELISA method.

ApoB [1] = experiment: Total cholesterol in serum (Example 5); type: in vivo, C57BL6/J mice; settings: mice, iv and sc administration, versus SEQ ID NO 12 and 14, FIG. 9
From the text: as §1, with “C57BL6/J mice were injected either iv or sc with a single dose saline or 0.25 mg/kg unconjugated LNA-antisense oligonucleotide (SEQ ID N012) or equimolar amounts of LNA antisense oligonucleotides conjugated to GalNAc1, GalNAc2, or cholesterol (2PO) and sacrificed at days 1-7 according to the table below (experimental design).” left out
as §2
Immediately before sacrifice retro-orbital sinus blood was collected using S-monovette Serum-Gel vials (Sarstedt, Nümbrecht, Germany) for serum preparation. Serum was analyzed for total cholesterol using ABX Pentra Cholesterol CP (Triolab, Brondby, Denmark) according to the manufacturer's instructions.

[2] = Oligonucleotide content in liver and kidney by sandwich ELISA (Example 5); type: in vivo, C57BL6/J mice; settings: mice
From the text: as §1, with “C57BL6/J mice were injected either iv or sc with a single dose saline or 0.25 mg/kg unconjugated LNA-antisense oligonucleotide (SEQ ID N012) or equimolar amounts of LNA antisense oligonucleotides conjugated to GalNAc1, GalNAc2, or cholesterol (2PO) and sacrificed at days 1-7 according to the table below (experimental design).” left out
RNA was isolated from liver and kidney and subjected to qPCR with ApoB specific primers and probe to analyse for ApoB mRNA knockdown. The oligonucleotide content was measured using ELISA method and total cholesterol in serum was measured. […]
as §3

ApoB [3] = experiment: Non-human primate study, serum ApoB and LDL-C (ApoB conjugates); type: in vivo, cynomolgus monkeys; settings: Example 7; single i.v. dose; FIG. 16
Procedure: (§4) The primary objective for this study is to investigate selected lipid markers over 7 weeks after a single slow bolus injection of anti-PCSK9 and anti-ApoB LNA conjugated to GalNac cluster (Conj2a) to cynomolgus monkeys and assess the potential toxicity of compounds in monkey. The compounds which were prepared in sterile saline (0.9%) at an initial concentration of 0.625 and 2.5 mg/ml).
(§5) Male (PCSK9) or female monkeys (ApoB) monkeys of at least 24 months old are used, and given free access to tap water and 180 g of MWM(E) SQC SHORT expanded diet (Dietex France, SDS, Saint Gratien, France) will be distributed daily per animal. The total quantity of food distributed in each cage will be calculated according to the number of animals in the cage on that day. In addition, fruit or vegetables will be given daily to each animal. The animals will be acclimated to the study conditions for a period of at least 14 days before the beginning of the treatment period. During this period, pre-treatment investigations will be performed. The animals are dosed i.v. at a dose if, for example, 0.25 mg/kg or 1 mg/kg. The dose volume will be 0.4 mL/kg. 2 animals are used per group. After three weeks, the data will be analyzed and a second group of animals using a higher or lower dosing regimen may be initiated—preliminary dose setting is 0.5 mg/kg and 1 mg/kg, or lower than that based on the first data set.
The dose formulations will be administered once on Day 1. Animals will be observed for a period of 7 weeks following treatment, and will be released from the study on Day 51. Day 1 corresponds to the first day of the treatment period. Clinical observations and body weight and food intake (per group) will be recorded prior to and during the study.
The following parameters will be determined for all surviving animals at the occasions indicated below: • full biochemistry panel (complete list below)—on Days −8, 15 and 50, • liver Safety (ASAT, ALP, ALAT, TBIL and GGT only)—on Days 4, 8, 22 and 36, • lipid profile (Total cholesterol, HDL-C, LDL-C and Triglycerides) and Apo-B only—on Days −1, 4, 8, 22, 29, 36, and 43.
Blood (approximately 1.0 mL) is taken into lithium heparin tubes (using the ADVIA 1650 blood biochemistry analyzer): Apo-B, sodium, potassium, chloride, calcium, inorganic phosphorus, glucose, HDL-C, LDL-C, urea, creatinine, total bilirubin (TBIL), total cholesterol, triglycerides, alkaline phosphatase (ALP), alanine aminotransferase (ALAT), aspartate aminotransferase (ASAT), creatine kinase, gamma-glutamyl transferase (GGT), lactate dehydrogenase, total protein, albumin, albumin/globulin ratio.
Other Analysis: WO2011009697 & WO2010142805 provides the methods for the following analysis: qPCR, PCSK9/ApoB mRNA analysis, Other analysis includes PCSK9/ApoB protein ELISA, serum Lp(a) analysis with ELISA (Mercodia No. 10-1106-01), tissue and plasma oligonucleotide analysis (drug content), Extraction of samples, standard- and QC-samples, Oligonucleotide content determination by ELISA. […] There was no indication of hepatotoxicity or nephrotoxicity with the ApoB targeting compounds.

miR-122 = experiment: LNA antimiR GalNAc conjugates, miR122 knock down in mice; type: in vivo, mouse; settings: for Aldo A and Bckdk mRNA: already in the low dose group (3×0.5 mg/kg), liver; for miR122 knock down in the liver: i.v. days 0, 2 and 4, day 7, compared to parent LNA; for total cholesterol levels: i.v. days 0, 2 and 4, serum pre-dose, day 4 and day 7
Procedure: (§6) An in vivo mouse study was performed using a total of 9 groups of mice (n=5). Each mouse was dosed i.v. on days 0, 2 and 4 with either 0.5 mg/kg or 2 mg/kg or equimolar doses of the GalNAc conjugated LNA's compared to parent LNA compound. A saline control group was included (see study set up in Tab. 1). Serum samples were taken 4 days pre administration, interim at day 4 and at endpoint day 7. Liver and kidney samples were stored in RNA later. Validation of miR122 knock down of miR122 was done as described in Obad Nat Genet. 2011 Mar. 20; 43(4):371-8 (FIG. 17). The cholesterol level in serum were analyzed as described in Elmen J, et al. LNA-mediated microRNA silencing in non-human primates. Nature. 2008; 452:896-899. (FIG. 18) and mRNA levels of two miR122 down regulated genes (Aldo A and Bckdk) were analyzed using standard QPCR assay techniques (FIG. 19). ALT was measured to assess tolerability of the compounds (FIG. 20).

[4] = ALT in final serum (antimiR-122 study); type: in vivo, mouse; settings: mice, final serum day 7
Procedure: Serum analysis for ALT, AST and cholesterol was performed on the “Cobas INTEGRA 400 plus” clinical chemistry platform (Roche Diagnostics), using 10 μl of serum.
as §6

PCSK9 = experiment: Non-human primate study, serum PCSK9 protein ELISA; type: in vivo; settings: cynomolgus monkeys, single dose, entire length of the study
Procedure: as §4
as §5, with “During this period, pre-treatment investigations will be performed. The animals are dosed i.v. at a dose if, for example, 0.25 mg/kg or 1 mg/kg. The dose volume will be 0.4 mL/kg. 2 animals are used per group.” left out
The dose formulations will be administered once on Day 1. […] Clinical observations and body weight and food intake (per group) will be recorded prior to and during the study. […]

| Substance | knock down of ApoB mRNA (ApoB mRNA) | total cholesterol in serum (ApoB [1]) | Aldo A and Bckdk mRNA (miR-122) | miR122 knock down in the liver (miR-122) | total cholesterol levels (miR-122) | ALT [4] | further results |
| --- | --- | --- | --- | --- | --- | --- | --- |
| SEQ ID NO 11: GsCsaststsgsgstsastsTsCsA, GalNAc cluster Conj2a; ApoB (GCATTGGTATTCA; listed as DNA, chemistry not fully specified) | knock down of ApoB mRNA better than the unconjugated ApoB LNA | better effect that the unconjugated and the cholesterol conjugated compounds | – | – | – | – | specific activity (activity relative to liver uptake) ([2]; iv dosing): higher specific activity than GalNAc 1 conjugate; pharmacology (serum ApoB and LDL-C) (ApoB [3]): did not exhibit significant pharmacology |
| SEQ ID NO 54: 5′-Conj1a^mCsAs^mCsAs^mCsTs^mCs^mCca^mCsAs^mCsAs^mCsTs^mCs^mC-3′ (CACACTCCCACACACTCC; LNA, 5-methyl C, ca linker, 5' GalNAc Conj1a, chemistry not fully specified) | – | – | up regulation of Aldo A and Bckdk mRNA | remarkable improvement of miR122 knock down in the liver | decreased total cholesterol levels | tendency to improve | – |
| SEQ ID NO 13: GsCsaststsgsgstsastsTsCsA, GalNAc cluster Conj1a; ApoB (GCATTGGTATTCA; sugars from the 5' end l2 d8 l3, all phosphorothioate, methylation of C not given here; GalNAc cluster Conj1a conjugated) | knock down of ApoB mRNA better than the unconjugated ApoB LNA | better effect that the unconjugated and the cholesterol conjugated compounds | – | – | – | – | knock down of ApoB mRNA, iv versus sc dosing (ApoB mRNA; single dose 0.36 mg/kg): iv dosing is better than sc dosing; tissue content of the oligonucleotides, uptake in liver ([2]; iv and sc, FIG. 10): very much uptake in liver |
| SEQ ID NO 52: 5′-Conj1a^mCsAs^mCsAs^mCsTs^mCs^mC-3′ (CACACTCC; LNA, 5-methyl C, 5' GalNAc Conj1a, chemistry not fully specified) | – | – | up regulation of Aldo A and Bckdk mRNA | remarkable improvement of miR122 knock down in the liver | decreased total cholesterol levels | increase in ALT | – |
| SEQ ID NO 28: AsAsTsgscstsascsasasasasCsCsCsA, GalNAc cluster Conj2a; PCSK9 (AATGCTACAAAACCCA; listed as DNA, chemistry not fully specified) | – | – | – | – | – | – | down regulation of PCSK9 (and LDL-C), onset and duration (PCSK9): rapid and consistent down regulation of PCSK9 and LDL-C throughout the duration of the study |

— patent publication US20150368642A1, “LNA OLIGONUCLEOTIDE CARBOHYDRATE CONJUGATES” (HOFFMANN-LA ROCHE INC., priority 2013, published 2015)
